Data set [1] concerns PBMCs. The data set is described as follows: Cytotoxicity towards PBMCs, lactate dehydrogenase (LDH) release assay (Tables 6, 7). The settings on record: SPOT synthesized peptide ~25 μM, PBMCs from 3 human donors; Table 6.
In data set [2] the test system is S. aureus (Sau). Format: cell-based. The protocol: (§1) The same strains as in Table 18 were assessed for Minimal Biofilm Inhibitory Concentrations (MBIC) (Table 19). Italics=excellent activity (less than or equal to 4 μg/ml). ND=Not determined. Peptides 3013, 3015 and 3016 inhibited biofilm growth in the largest number of bacterial strains (5, 5 and 6 out of 13 strains, respectively).
(§2) In addition, several peptides expressed preferential activity vs. biofilms (MBIC) cf. planktonic cells (MIC) (Table 20).

Data set [3] has as its system E. coli (Ec). Format: cell-based. The protocol:
as §1, §2

Data set [4] has as its system E. coli (Ec). Format: cell-based. The source holds these as a separate data set.
Data set [5] concerns planktonic methicillin resistant S. aureus. The experiment in a line: microbe, parasite or virus in culture. Format: cell-based, Staphylococcus aureus.
In data set [6] the test system is S. aureus (Sau). It is filed as cell-based. This is another data set of the same source.
The mark [7] stands for this setting: planktonic methicillin resistant.
[8] abbreviates: planktonic methicillin resistant S. aureus, broth microdilution in Mueller Hinton Broth (MHB), mean of three biological replicates.
The mark [9] stands for this setting: planktonic methicillin resistant S. aureus, broth microdilution in Tryptic Soy Broth (TSB) supplemented with 1% glucose, mean of three biological replicates.

Where two headings read alike, the source gives them in different places. No end group written: not given here.

Take “IAWQLLWGWRVR-NH2 [Peptide 3022, IAWQLLWGWRVR]”: in data set [1], the “% Toxicity (LDH Release)” value is −4.8%. Moreover, the “MBIC S. aureus” value in data set [2] (Sau) amounted to 4 µg/mL. Also, in data set [3] (Ec), the “MBIC E. coli” value came to 4 µg/mL. Also, the “MIC E. coli” value in data set [4] (Ec) was 8 µg/mL. In data set [5] (setting [7]), the “MIC (μM) MHB” value amounted to 4 µM and the “MIC (μM) TSB with 1% Glucose” value was found to be 8 µM. For the same substance, the “MIC S. aureus” value in data set [6] (Sau) worked out at 8 µg/mL.
As to “RRIIKILLWKLR-NH2 [Peptide 3021, RRIIKILLWKLR]”, the “% Toxicity (LDH Release)” value in data set [1] turned out to be 13.1%. Further, the “MBIC S. aureus” value in data set [2] (Sau) came out at 1 µg/mL. Moreover, the “MBIC E. coli” value in data set [3] (Ec) was 2 µg/mL. In data set [4] (Ec), the “MIC E. coli” value is <1 µg/mL. In addition, in data set [5] (setting [7]), the “MIC (μM) MHB” value worked out at 4 µM and the “MIC (μM) TSB with 1% Glucose” value was found to be 32 µM. Moreover, the “MIC S. aureus” value in data set [6] (Sau) was determined as 8 µg/mL.
On to “VIKWLLKILRAI-NH2 [Peptide 3001, VIKWLLKILRAI]”, for which the “% Toxicity (LDH Release)” value in data set [1] came out at 64.4%. Also, the “MBIC S. aureus” value in data set [2] (Sau) was <1 µg/mL. In data set [3] (Ec), the “MBIC E. coli” value was found to be 2 µg/mL. Moreover, in data set [4] (Ec), the “MIC E. coli” value was 4 µg/mL. Besides, in data set [5] (setting [7]), the “MIC (μM) MHB” value was found to be 1 µM and the “MIC (μM) TSB with 1% Glucose” value was 2 µM. The “MIC S. aureus” value in data set [6] (Sau) stood at 2 µg/mL.
As to “IWLRLKVVLKRK-NH2 [Peptide 3006, IWLRLKVVLKRK]”, the “% Toxicity (LDH Release)” value in data set [1] is given as 2.4%. Moreover, the “MBIC S. aureus” value in data set [2] (biofilms, Table 20) was determined as 1 µg/mL. Also, the “MBIC E. coli” value in data set [3] (biofilms, Table 20) was 1 µg/mL. Further, the “MIC E. coli” value in data set [4] (planktonic cells, Table 20) was 2 µg/mL. Moreover, the “MIC (μM) MHB” value in data set [5] (setting [8]) amounted to 4 µM. For the same substance, the “MIC (μM) TSB with 1% Glucose” value in data set [5] (setting [9]) was found to be 32 µM. Moreover, the “MIC S. aureus” value in data set [6] (planktonic cells, Table 20) is 8 µg/mL.
Turning to “KKWQLLIKWKLR-NH2 [Peptide 3008, KKWQLLIKWKLR]”, the “% Toxicity (LDH Release)” value in data set [1] is 18.8%. Further, the “MBIC S. aureus” value in data set [2] (Sau) was 2 µg/mL. Also, the “MBIC E. coli” value in data set [3] (Ec) turned out to be 4 µg/mL. Further, in data set [4] (Ec), the “MIC E. coli” value was 8 µg/mL. Also, in data set [5] (setting [7]), the “MIC (μM) MHB” value was determined as 2 µM and the “MIC (μM) TSB with 1% Glucose” value is 4 µM. The “MIC S. aureus” value in data set [6] (Sau) amounted to 8 µg/mL.
For the substance “WQGWAKIWVVRI-NH2 [Peptide 3019, WQGWAKIWVVRI]”, the “% Toxicity (LDH Release)” value in data set [1] is −3.1%. Besides, the “MBIC S. aureus” value in data set [2] (Sau) was 2 µg/mL. Further, the “MBIC E. coli” value in data set [3] (Ec) is 2 µg/mL. Besides, the “MIC E. coli” value in data set [4] (Ec) came out at 4 µg/mL. In data set [5] (setting [7]), the “MIC (μM) MHB” value came out at 8 µM and the “MIC (μM) TSB with 1% Glucose” value worked out at 32 µM. The “MIC S. aureus” value in data set [6] (Sau) stood at 4 µg/mL.
With “VQRIIWLRVKIV-NH2 [Peptide 3023, VQRIIWLRVKIV]”, the “% Toxicity (LDH Release)” value in data set [1] is −3%. In data set [2] (Sau), the “MBIC S. aureus” value was determined as 2 µg/mL. The “MBIC E. coli” value in data set [3] (Ec) came out at 1 µg/mL. For the same substance, the “MIC E. coli” value in data set [4] (Ec) is 2 µg/mL. Besides, in data set [5] (setting [7]), the “MIC (μM) MHB” value came out at 16 µM and the “MIC (μM) TSB with 1% Glucose” value is >64 µM. Besides, in data set [6] (Sau), the “MIC S. aureus” value was determined as 4 µg/mL.
As for “VLQIKKVLRLLL-NH2 [Peptide 3011, VLQIKKVLRLLL]”, the “% Toxicity (LDH Release)” value in data set [1] turned out to be 15.7%. Besides, in data set [2] (biofilms, Table 20), the “MBIC S. aureus” value is 2 µg/mL. Moreover, the “MBIC E. coli” value in data set [3] (biofilms, Table 20) came to 4 µg/mL. For the same substance, the “MIC E. coli” value in data set [4] (planktonic cells, Table 20) was determined as 8 µg/mL. Also, the “MIC (μM) MHB” value in data set [5] (setting [8]) stood at 8 µM. In data set [5] (setting [9]), the “MIC (μM) TSB with 1% Glucose” value is 16 µM. Moreover, the “MIC S. aureus” value in data set [6] (planktonic cells, Table 20) was 64 µg/mL.
As for “ILVRWIRWRIQW-NH2 [Peptide 3002, ILVRWIRWRIQW]”, the “% Toxicity (LDH Release)” value in data set [1] is listed as −3.7%. For the same substance, the “MBIC S. aureus” value in data set [2] (Sau) turned out to be 4 µg/mL. Further, in data set [3] (Ec), the “MBIC E. coli” value worked out at 4 µg/mL. In addition, in data set [4] (Ec), the “MIC E. coli” value was 8 µg/mL. In data set [5] (setting [7]), the “MIC (μM) MHB” value worked out at 2 µM and the “MIC (μM) TSB with 1% Glucose” value came to 4 µM. Also, the “MIC S. aureus” value in data set [6] (Sau) worked out at 8 µg/mL.
Take “RVKAIKWRKIVV-NH2 [Peptide 3012, RVKAIKWRKIVV]”: in data set [1], the “% Toxicity (LDH Release)” value is listed as 2.8%. For the same substance, in data set [2] (Sau), the “MBIC S. aureus” value was 8 µg/mL. Also, the “MBIC E. coli” value in data set [3] (Ec) was determined as 32 µg/mL. Besides, the “MIC E. coli” value in data set [4] (Ec) worked out at 64 µg/mL. Moreover, in data set [5] (setting [7]), the “MIC (μM) MHB” value is >64 µM and the “MIC (μM) TSB with 1% Glucose” value was >64 µM. In addition, the “MIC S. aureus” value in data set [6] (Sau) was >64 µg/mL.
Take “WVGVIIKWGLKL-NH2 [Peptide 3018, WVGVIIKWGLKL]”: the “% Toxicity (LDH Release)” value in data set [1] is reported as −0.3%. Further, in data set [2] (Sau), the “MBIC S. aureus” value stood at 1 µg/mL. Besides, the “MBIC E. coli” value in data set [3] (Ec) came to 2 µg/mL. Moreover, the “MIC E. coli” value in data set [4] (Ec) amounted to 4 µg/mL. In addition, in data set [5] (setting [7]), the “MIC (μM) MHB” value was found to be 2 µM and the “MIC (μM) TSB with 1% Glucose” value was 4 µM. In addition, the “MIC S. aureus” value in data set [6] (Sau) was found to be 2 µg/mL.
As for “IQRWWKVWLKVI-NH2 [Peptide 3004, IQRWWKVWLKVI]”, in data set [1], the “% Toxicity (LDH Release)” value is 5.1%. In addition, the “MBIC S. aureus” value in data set [2] (Sau) was determined as 1 µg/mL. Further, the “MBIC E. coli” value in data set [3] (Ec) stood at 2 µg/mL. Besides, the “MIC E. coli” value in data set [4] (Ec) came to 4 µg/mL. Moreover, in data set [5] (setting [7]), the “MIC (μM) MHB” value came to 4 µM and the “MIC (μM) TSB with 1% Glucose” value worked out at 16 µM. The “MIC S. aureus” value in data set [6] (Sau) is 8 µg/mL.
Take “RRQWRGWVRIWL-NH2 [Peptide 3005, RRQWRGWVRIWL]”: in data set [1], the “% Toxicity (LDH Release)” value was −4.2%. The “MBIC S. aureus” value in data set [2] (Sau) turned out to be 1 µg/mL. Further, in data set [3] (Ec), the “MBIC E. coli” value was found to be 2 µg/mL. Also, the “MIC E. coli” value in data set [4] (Ec) stood at 4 µg/mL. Further, in data set [5] (setting [7]), the “MIC (μM) MHB” value was 4 µM and the “MIC (μM) TSB with 1% Glucose” value came out at 64 µM. Moreover, the “MIC S. aureus” value in data set [6] (Sau) came out at 8 µg/mL.
As to “KIQRRAWKQWRK-NH2 [Peptide 3014, KIQRRAWKQWRK]”, in data set [1], the “% Toxicity (LDH Release)” value is recorded as −3.7%. Besides, in data set [2] (Sau), the “MBIC S. aureus” value worked out at 64 µg/mL. The “MBIC E. coli” value in data set [3] (Ec) was determined as 64 µg/mL. Also, the “MIC E. coli” value in data set [4] (Ec) was determined as 64 µg/mL. In data set [5] (setting [7]), the “MIC (μM) MHB” value is >64 µM and the “MIC (μM) TSB with 1% Glucose” value is >64 µM. In addition, the “MIC S. aureus” value in data set [6] (Sau) was >64 µg/mL.
As for “LIVIQLLKKWWK-NH2 [Peptide 3020, LIVIQLLKKWWK]”, the “% Toxicity (LDH Release)” value in data set [1] came out at 10.2%. Besides, the “MBIC S. aureus” value in data set [2] (Sau) is <1 µg/mL. Further, in data set [3] (Ec), the “MBIC E. coli” value turned out to be 1 µg/mL. Further, the “MIC E. coli” value in data set [4] (Ec) worked out at 2 µg/mL. In data set [5] (setting [7]), the “MIC (μM) MHB” value was found to be 8 µM and the “MIC (μM) TSB with 1% Glucose” value is >64 µM. For the same substance, the “MIC S. aureus” value in data set [6] (Sau) came out at 16 µg/mL.
Take “IKIIWKALGQVI-NH2 [Peptide 3024, IKIIWKALGQVI]”: the “% Toxicity (LDH Release)” value in data set [1] was −1.7%. Besides, the “MBIC S. aureus” value in data set [2] (Sau) was 8 µg/mL. Moreover, in data set [3] (Ec), the “MBIC E. coli” value came to 2 µg/mL. Moreover, the “MIC E. coli” value in data set [4] (Ec) amounted to 4 µg/mL. For the same substance, in data set [5] (setting [8]), the “MIC (μM) MHB” value was found to be 16 µM. Further, the “MIC (μM) TSB with 1% Glucose” value in data set [5] (setting [9]) was 32 µM. Also, the “MIC S. aureus” value in data set [6] (Sau) was determined as 16 µg/mL.
Consider “VLKIKVKIWVVK-NH2 [Peptide 3007, VLKIKVKIWVVK]”, for which the “% Toxicity (LDH Release)” value in data set [1] is 2%. In addition, the “MBIC S. aureus” value in data set [2] (biofilms, Table 20) worked out at 2 µg/mL. In addition, in data set [3] (biofilms, Table 20), the “MBIC E. coli” value came to 4 µg/mL. Besides, in data set [4] (planktonic cells, Table 20), the “MIC E. coli” value came to 8 µg/mL. In addition, the “MIC (μM) MHB” value in data set [5] (setting [8]) amounted to 16 µM. Moreover, the “MIC (μM) TSB with 1% Glucose” value in data set [5] (setting [9]) is >64 µM. Besides, the “MIC S. aureus” value in data set [6] (planktonic cells, Table 20) was found to be 16 µg/mL.

(Values after patent US20210138025A1, “CATIONIC PEPTIDES WITH IMMUNOMODULATORY AND/OR ANTI-BIOFILM ACTIVITIES” (priority 2018, published 2021).)
